Patent US11180462B2, “Microbiocidal oxadiazole derivatives” (SYNGENTA PARTICIPATIONS AG, priority 2015, dated 2021)

Legend:
[1] = tested on: Puccinia recondita f. Sp. Tritici; test: Fungicidal activity against Puccinia recondita f. sp. tritici / wheat / leaf disc curative (brown rust); assay type: in vivo; conditions: foliar, 24 h, 200 ppm in the applied formulation, wheat leaf segments, curative (applied 1 day after inoculation), compared to untreated control leaf disks, read-out: disease control
In short: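 % disease control vs untreated, scored 6–8 d post-application. Wheat cv. Kanzler segments, spore-inoculated, dark 19° C/75% RH; formulated cpd applied 1 d post-inoc; then 19° C, 75% RH, 12 h L/12 h D.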

[2] = tested on: Puccinia recondita f. Sp. Tritici; test: Fungicidal activity against Puccinia recondita f. sp. tritici / wheat / leaf disc preventative (brown rust); assay type: in vivo; conditions: foliar, 200 ppm in the applied formulation, wheat leaf segments, preventative, compared to untreated control leaf disks, read-out: disease control
In short: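 Compound application precedes infection: segments of wheat cv. Kanzler, sprayed at 200 ppm, are inoculated with a spore suspension after 1 day. Incubation is at 19° C. with 75% relative humidity and 12 h light/12 h darkness, and control versus untreated leaves is rated 7 to 9 days post-application.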

[3] = tested on: Glomerella lagenarium (Colletotrichum lagenarium); test: Fungicidal activity against Glomerella lagenarium (Colletotrichum lagenarium) liquid culture / cucumber / preventative (anthracnose); assay type: cell-based; conditions: Colletotrichum orbiculare; 20 ppm in the applied formulation; liquid culture (PDB), growth inhibition measured photometrically after 3 to 4 days; compared to untreated control; read-out: disease control
In short: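 Photometric read-out of fungal growth after 2–7 days, expressed as percent antifungal activity versus untreated check. Cryo-stored conidia in PDB; compound at 20 ppm; dark, 24 °C, 96% RH.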

Phakopsora Pachyrhizi = test: Fungicidal activity against Phakopsora pachyrhizi / soybean / leaf disc preventative (Asian soybean rust); assay type: in vivo; conditions: foliar, 200 ppm in the applied formulation, soybean leaf disks, compared to untreated control leaf disks, read-out: disease control
In short: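 Preventative soybean leaf-disc test: discs on water agar sprayed with diluted formulated compound, inoculated one day later with spores on the lower surface. Held 24–36 h dark at 20°C, 75% rh, then 12 h light/day; percent disease control versus untreated discs scored 12–14 days after application.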

CON(Cc1ccc(-c2noc(C(F)(F)F)n2)c(F)c1F)C(=O)C1CC1 [Compound 1.584, N-[[2,3-difluoro-4-[5-(trifluoromethyl)-1,2,4-oxadiazol-3-yl]phenyl]methyl]-N-methoxy-cyclopropane-carboxamide]
≥ 80%: pest or weed control at 200 ppm [1] | pest or weed control at 200 ppm [2] | inhibition of growth at 20 ppm [3] | pest or weed control at 200 ppm (Phakopsora Pachyrhizi)

CCC(=O)N(Cc1ccc(-c2noc(C(F)(F)F)n2)c(F)c1F)OC [Compound 1.585, N-[[2,3-difluoro-4-[5-(trifluoromethyl)-1,2,4-oxadiazol-3-yl)phenyl]methyl)-N-methoxy-propanamide]
≥ 80%: pest or weed control at 200 ppm [1] | pest or weed control at 200 ppm [2] | inhibition of growth at 20 ppm [3] | pest or weed control at 200 ppm (Phakopsora Pachyrhizi)

O=C(C1CCCO1)N(Cc1ccc(-c2noc(C(F)(F)F)n2)cc1)CC(F)(F)F (centres unmarked) [Compound 1.587, N-(2,2,2-Trifluoroethyl)-N-[[4-[5-(Trifluoromethyl)-1,2,4-Oxadiazol-3-yl]Phenyl]Methyl]Tetrahydrofuran-2-Carboxamide]
≥ 80%: pest or weed control at 200 ppm [1] | pest or weed control at 200 ppm [2] | inhibition of growth at 20 ppm [3] | pest or weed control at 200 ppm (Phakopsora Pachyrhizi)

CCC(=O)N(Cc1ccc(-c2noc(C(F)(F)F)n2)cc1)C(C)C [Compound 1.589, N-isopropyl-N-[[4-[5-(trifluoromethyl)-1,2,4-oxadiazol-3-yl]phenyl]methyl]-propanamide]
≥ 80%: pest or weed control at 200 ppm [1] | pest or weed control at 200 ppm [2] | inhibition of growth at 20 ppm [3] | pest or weed control at 200 ppm (Phakopsora Pachyrhizi)

CCC(=O)OCCN(Cc1ccc(-c2noc(C(F)(F)F)n2)cc1)C(=O)CC [Compound 1.590, 2-[propanoyl-[[4-[5-(trifluoromethyl)-1,2,4-oxadiazol-3-yl]phenyl]methyl]-amino]ethyl propanoate]
≥ 80%: pest or weed control at 200 ppm [1] | pest or weed control at 200 ppm [2] | inhibition of growth at 20 ppm [3] | pest or weed control at 200 ppm (Phakopsora Pachyrhizi)

CCC(=O)N(CCO)Cc1ccc(-c2noc(C(F)(F)F)n2)cc1 [Compound 1.591, N-(2-hydroxyethyl)-N-[[4-[5-(trifiuoromethyl)-1,2,4-oxadiazol-3-yl]phenyl]methyl]-propanamide]
≥ 80%: pest or weed control at 200 ppm [1] | pest or weed control at 200 ppm [2] | inhibition of growth at 20 ppm [3] | pest or weed control at 200 ppm (Phakopsora Pachyrhizi)

C=CCN(C(=O)CC)C(C#N)c1ccc(-c2noc(C(F)(F)F)n2)cc1 (centres unmarked) [Compound 1.592, N-allyl-N-[cyano-[4-[5-(trifluoromethyl)-1,2,4-oxadiazol-3-yl]phenyl]methyl]-propanamide]
≥ 80%: pest or weed control at 200 ppm [1] | pest or weed control at 200 ppm [2] | inhibition of growth at 20 ppm [3] | pest or weed control at 200 ppm (Phakopsora Pachyrhizi)

CCC(=O)N(Cc1c(F)cc(-c2noc(C(F)(F)F)n2)cc1F)OC [Compound 1.594, N-[[2,6-difluoro-4-[5-(trifluoromethyl)-1,2,4-oxadiazol-3-yl]phenyl]methyl]-N-methoxy-propanamide]
≥ 80%: pest or weed control at 200 ppm [1] | pest or weed control at 200 ppm [2] | inhibition of growth at 20 ppm [3] | pest or weed control at 200 ppm (Phakopsora Pachyrhizi)

CN(Cc1ccc(-c2noc(C(F)(F)F)n2)cc1)C(=O)COC(F)F [Compound 1.595, 2-(difluoromethoxy)-N-methyl-N-[[4-[5-(trifluoromethyl)-1,2,4-oxadiazol-3-yl]phenyl]methyl]-acetamide]
≥ 80%: pest or weed control at 200 ppm [1] | pest or weed control at 200 ppm [2] | inhibition of growth at 20 ppm [3] | pest or weed control at 200 ppm (Phakopsora Pachyrhizi)

CON(Cc1c(F)cc(-c2noc(C(F)(F)F)n2)cc1F)C(=O)C1CC1 [Compound 1.596, N-[[2,6-difluoro-4-[5-(trifluoromethyl)-1,2,4-oxadiazol-3-yl]phenyl]methyl]-N-methoxy-cyclopropane-carboxamide]
≥ 80%: pest or weed control at 200 ppm [1] | pest or weed control at 200 ppm [2] | inhibition of growth at 20 ppm [3] | pest or weed control at 200 ppm (Phakopsora Pachyrhizi)

CON(Cc1c(F)cc(-c2noc(C(F)(F)F)n2)cc1F)C(=O)C1CCCO1 (centres unmarked) [Compound 1.597, N-[[2,6-difluoro-4-[5-(trifluoromethyl)-1,2,4-oxadiazol-3-yl]phenyl]methyl)-N-methoxy-tetrahydrofuran-2-carboxamide]
≥ 80%: pest or weed control at 200 ppm [1] | pest or weed control at 200 ppm [2] | inhibition of growth at 20 ppm [3] | pest or weed control at 200 ppm (Phakopsora Pachyrhizi)

CC(C)N(Cc1ccc(-c2noc(C(F)(F)F)n2)cc1)C(=O)C1CC1 [Compound 1.599, N-isopropyl-N-[[4-[5-(trifluoromethyl)-1,2,4-oxadiazol-3-yl]phenyl]methyl]-cyclopropane-carboxamide]
≥ 80%: pest or weed control at 200 ppm [1] | pest or weed control at 200 ppm [2] | inhibition of growth at 20 ppm [3] | pest or weed control at 200 ppm (Phakopsora Pachyrhizi)

COCC(=O)N(Cc1ccc(-c2noc(C(F)(F)F)n2)cc1)C(C)C [Compound 1.600, N-isopropyl-2-methoxy-N-[[4-[5-(trifluoromethyl)-1,2,4-oxadiazol-3-yl]phenyl]methyl]-acetamide]
≥ 80%: pest or weed control at 200 ppm [1] | pest or weed control at 200 ppm [2] | inhibition of growth at 20 ppm [3] | pest or weed control at 200 ppm (Phakopsora Pachyrhizi)

O=C(ON(Cc1ccc(-c2noc(C(F)(F)F)n2)cc1)C(=O)C1CC1)C1CC1 [Compound 1.608, [cyclopropanecarbonyl-[[4-[5-(trifluoromethyl)-1,2,4-oxadiazol-3-yl]phenyl]methyl]-amino]-cyclopropane-carboxylate]
≥ 80%: pest or weed control at 200 ppm [1] | pest or weed control at 200 ppm [2] | inhibition of growth at 20 ppm [3] | pest or weed control at 200 ppm (Phakopsora Pachyrhizi)

COCC(=O)N(CCO)Cc1ccc(-c2noc(C(F)(F)F)n2)cc1 [Compound 1.610, N-(2-hydroxyethyl)-2-methoxy-N-[[4-[5-(trifluoromethyl)-1,2,4-oxadiazol-3-yl]phenyl]methyl]-acetamide]
≥ 80%: pest or weed control at 200 ppm [1] | pest or weed control at 200 ppm [2] | inhibition of growth at 20 ppm [3] | pest or weed control at 200 ppm (Phakopsora Pachyrhizi)

CN(C(=O)C1CC1)C(C#N)c1ccc(-c2noc(C(F)(F)F)n2)cc1 (centres unmarked) [Compound 1.612, N-[cyano-[4-[5-(trifluoromethyl)-1,2,4-oxadiazol-3-yl]phenyl]methyl)-N-methyl-cyclopropane-carboxamide]
≥ 80%: pest or weed control at 200 ppm [1] | pest or weed control at 200 ppm [2] | inhibition of growth at 20 ppm [3] | pest or weed control at 200 ppm (Phakopsora Pachyrhizi)

COCC(=O)N(Cc1ccc(-c2noc(C(F)(F)F)n2)cc1)C1COC1 [Compound 1.613, 2-methoxy-N-(oxetan-3-yl)-N-[[4-[5-(trifluoromelhyl)-1,2,4-oxadiazol-3-yl]phenyl]methyl]-acetamide]
≥ 80%: pest or weed control at 200 ppm [1] | pest or weed control at 200 ppm [2] | inhibition of growth at 20 ppm [3] | pest or weed control at 200 ppm (Phakopsora Pachyrhizi)

CCON(Cc1ccc(-c2noc(C(F)(F)F)n2)cc1)C(=O)C(C)C [Compound 1.614, N-ethoxy-2-methyl-N-[[4-[5-(trifluoromethyl)-1,2,4-oxadiazol-3-yl]phenyl]methyl]-propanamide]
≥ 80%: pest or weed control at 200 ppm [1] | pest or weed control at 200 ppm [2] | inhibition of growth at 20 ppm [3] | pest or weed control at 200 ppm (Phakopsora Pachyrhizi)

CCON(Cc1ccc(-c2noc(C(F)(F)F)n2)cc1)C(=O)C1CC1(F)F (centres unmarked) [Compound 1.615, N-ethoxy-2,2-difluoro-N-[[4-[5-(trifluoromethyl)-1,2,4-oxadiazol-3-yl]phenyl]methyl]-cyclopropane-carboxamide]
≥ 80%: pest or weed control at 200 ppm [1] | pest or weed control at 200 ppm [2] | inhibition of growth at 20 ppm [3] | pest or weed control at 200 ppm (Phakopsora Pachyrhizi)

CCON(Cc1ccc(-c2noc(C(F)(F)F)n2)cc1)C(=O)C1CCOC1 (centres unmarked) [Compound 1.617, N-ethoxy-N-[[4-[5-(trifluoromethyl)-1,2,4-oxadiazol-3-yl]phenyl]methyl]-tetrahydrofuran-3-carboxamide]
≥ 80%: pest or weed control at 200 ppm [1] | pest or weed control at 200 ppm [2] | inhibition of growth at 20 ppm [3] | pest or weed control at 200 ppm (Phakopsora Pachyrhizi)

CCON(Cc1ccc(-c2noc(C(F)(F)F)n2)cc1)C(=O)CCOC [Compound 1.618, N-ethoxy-3-methoxy-N-[[4-[5-(trifluoromethyl)-1,2,4-oxadiazol-3-yl]phenyl]methyl]-propanamide]
≥ 80%: pest or weed control at 200 ppm [1] | pest or weed control at 200 ppm [2] | inhibition of growth at 20 ppm [3] | pest or weed control at 200 ppm (Phakopsora Pachyrhizi)

CCON(Cc1ccc(-c2noc(C(F)(F)F)n2)cc1)C(=O)C1CC1C (centres unmarked) [Compound 1.620]
≥ 80%: pest or weed control at 200 ppm [1] | pest or weed control at 200 ppm [2] | inhibition of growth at 20 ppm [3] | pest or weed control at 200 ppm (Phakopsora Pachyrhizi)

CCON(Cc1ccc(-c2noc(C(F)(F)F)n2)cc1)C(=O)C1(C)CC1 [Compound 1.621, N-ethoxy-1-methyl-N-[[4-[5-(trifluoromethyl)-1,2,4-oxadiazol-3-yl]phenyl]methyl]-cyclopropane-carboxamide]
≥ 80%: pest or weed control at 200 ppm [1] | pest or weed control at 200 ppm [2] | inhibition of growth at 20 ppm [3] | pest or weed control at 200 ppm (Phakopsora Pachyrhizi)
